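Cultured in 96-well plates, cells were exposed to test compound for 48 hours across five concentrations. GI50 = concentration required for 50% inhibition of growth.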 The source made the active and inactive calls. Cut-off read from the data, not from the text of the source: active = GI50 up to about 1.1 µM and inactive = higher.
Legend:
Test in all cases: inhibition of tumour cell growth, NCI panel, 48 h
[1] = tested on: SK-OV-3
[2] = tested on: NCI-H226
[3] = tested on: ACHN
[4] = tested on: IGROV-1
[5] = tested on: HOP-62
[6] = tested on: A549
[7] = tested on: EKVX
[8] = tested on: MDA-MB-435
[9] = tested on: OVCAR-5
[10] = tested on: HL-60
[11] = tested on: MDA-MB-231
[12] = tested on: Hs-578T
[13] = tested on: HCT-116
[14] = tested on: NCI-H23
[15] = tested on: SK-MEL-28
[16] = tested on: HOP-92
[17] = tested on: NCI-H522
[18] = tested on: DU-145
[19] = tested on: MDA-N

Measured: GI50

CCCCCCN(CCCCCC)CCC(=O)c1ccc2cc(Br)c3ccccc3c2c1
inactive: [1] 39.1 µM | [2] 69.7 µM | [3] 54.1 µM | [4] 40.3 µM | [5] 40.4 µM | [6] > 100 µM | [7] > 100 µM | [8] 26.1 µM | [9] 78 µM | [10] 10.8 µM | [11] 26.7 µM | [12] 33.3 µM | [13] 78.3 µM | [14] 81.8 µM | [15] 77.1 µM | [16] 19.4 µM | [17] 25.5 µM | [18] 52.2 µM

O=C(/C(=N/Nc1cn[nH]c(=O)c1Cl)c1ccccc1)c1ccccc1
inactive: [1] 39.5 µM | [2] 25.3 µM | [3] 57.9 µM | [4] 18.9 µM | [19] 4.99 µM | [5] 44.8 µM | [6] 18.3 µM | [7] 24 µM | [8] 5.11 µM | [10] 16.8 µM | [11] 24.7 µM | [13] 23.1 µM | [14] 22.4 µM | [15] 45.1 µM | [16] 24.8 µM | [17] 17.1 µM | [18] 20.5 µM

COC(=O)CCc1ccc2c(c1)CC1(C2)Cc2ccc(CCC(=O)OC)cc2C1
inactive: [1] > 100 µM | [2] 38.8 µM | [3] > 100 µM | [4] 75.2 µM | [19] > 100 µM | [5] 62.7 µM | [6] > 100 µM | [7] > 100 µM | [8] > 100 µM | [9] > 100 µM | [10] 17.1 µM | [11] 89.9 µM | [12] > 100 µM | [13] > 100 µM | [14] 44.7 µM | [16] 35.4 µM | [17] 34.5 µM

COC(=O)C(Cc1ccccc1)NC(=O)C(CCC(=O)OCc1ccccc1)NC(=O)OC(C)(C)C (stereo not given)
inactive: [1] > 100 µM | [2] 57.4 µM | [3] 68.9 µM | [4] > 100 µM | [5] > 100 µM | [6] > 100 µM | [7] > 100 µM | [8] > 100 µM | [9] > 100 µM | [10] 54.8 µM | [11] 48.1 µM | [12] > 100 µM | [13] 44.4 µM | [14] > 100 µM | [15] > 100 µM | [16] > 100 µM | [17] 30.4 µM | [18] > 100 µM

CN(NC1=NCCO1)c1ccc2ccccc2c1
inactive: [1] 39.1 µM | [2] 34.1 µM | [3] 62.8 µM | [4] 39.7 µM | [5] 80.7 µM | [6] 60.3 µM | [7] 39.5 µM | [8] 34.5 µM | [9] 80 µM | [10] 26.9 µM | [11] 26.3 µM | [12] 35.2 µM | [13] 35 µM | [14] 32.1 µM | [15] 70.3 µM | [16] 13.6 µM | [17] 29.9 µM | [18] > 100 µM

Cc1cccc(N2C(=O)C3c4[nH]c5ccccc5c4C4CCC(C(C)(C)C)CC4C3C2=O)c1 (stereo not given)
inactive: [2] 18.7 µM | [3] 4.95 µM | [4] 4.13 µM | [19] 15.3 µM | [5] 3.54 µM | [6] 10.6 µM | [7] 14.4 µM | [8] 15.2 µM | [9] 16.8 µM | [10] 46.3 µM | [11] 9.53 µM | [12] 9.98 µM | [13] 9.29 µM | [14] 16 µM | [15] 16.3 µM | [17] 11.1 µM | [18] 12.4 µM

Reference: ChEMBL document CHEMBL1201862, “PubChem BioAssay data set” (2004)
